Results taken from US10597405B2, “Chemical compounds” (ASTRAZENECA AB, priority 2017, dated 2020).

Biological target: T1, KRasG12C (Homo sapiens, UniProt P01116, G12C)
T1 construct: biotin (biotinylated); made in house
Test: KRasG12C functional assay (HTRF nucleotide exchange / Raf RBD binding)
Assay type: biochemical
Conditions: GDP loaded biotinylated KRasG12C, samples incubated 4 hrs, FRET readout; single experiment or average of two or more
Description: KRasG12C Functional Assay
All enzyme and substrate solutions were prepared in assay buffer containing 20 mM HEPES (pH 7.5), 5 mM MgCl2, 150 mM NaCl, and 0.01% Tween 20. […] In a separate mix 20 nM GST-Raf Ras binding domain (GST-Raf RBD, purified in house) and 4 μg/ml anti-GST XL665 antibody (Cisbio) was prepared in assay buffer containing 50 mM Potassium Fluoride and 0.05 mg/ml BSA and equilibrated for 4 hours before adding 0.6 μM Guanosine 5′-[γ-thio]triphosphate (GTPγS, Sigma) and 0.08 μM SOS (purified in house). 5 μl of the GST-RAF RBD mix was then dispensed into each well of the assay plate. […] This is detected simultaneously via the specific binding interaction between active GTPγS KRas^G12C with GST-Raf RBD which brings the europium and XL665 into close proximity enabling an increased FRET signal to be detected on a Pherastar (BMG) plate reader equipped with the HTRF filter module. […] IC50 values were calculated from normalised dose-response response FRET data curve fitted in Genedata screener (Basel, Switzerland).

T1 sequence (P01116 1-188 isoform P01116-2 G12C): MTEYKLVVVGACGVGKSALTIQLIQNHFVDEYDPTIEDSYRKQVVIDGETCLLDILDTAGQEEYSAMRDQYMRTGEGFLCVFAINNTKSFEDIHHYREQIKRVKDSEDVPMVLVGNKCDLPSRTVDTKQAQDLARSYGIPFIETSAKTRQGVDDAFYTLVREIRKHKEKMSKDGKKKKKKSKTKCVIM

Compound	IC50 [nM]
C=CC(=O)N1CCN2c3c(cnc4c(F)c(-c5c(C)ccc6[nH]cnc56)c(Cl)cc34)OC[C@H]2C1 (single isomer, unassigned) [Compound 78]	7140
C=CC(=O)N1CCN2c3c(cnc4c(Cl)c(-c5c(O)cccc5F)c(F)cc34)N(C)C(=O)[C@H]2C1 (single isomer, unassigned) [Compound 79]	141
C=CC(=O)N1CCN2c3c(cnc4c(Cl)c(-c5c(O)cccc5F)c(F)cc34)N(C)C(=O)[C@H]2C1 (single isomer, unassigned) [Compound 80]	14700
C=CC(=O)N1CCN2c3c(cnc4c(F)c(-c5c(C)ccc6[nH]c(=O)n(C)c56)c(Cl)cc34)OC[C@H]2C1 (single isomer, unassigned) [Compound 84]	2400
C=CC(=O)N1CCN2c3c(cnc4c(F)c(-c5c(C)ccc6[nH]c(=O)n(C)c56)c(Cl)cc34)OC[C@H]2C1 (single isomer, unassigned) [Compound 85]	10
C=CC(=O)N1CCN2c3c(cnc4c(F)c(-c5c(C)ccc6c5C(=O)NC6)c(Cl)cc34)OC[C@H]2C1 (single isomer, unassigned) [Compound 87]	8600
C=CC(=O)N1CCN2c3c(cnc4c(F)c(-c5c(O)cccc5F)c(Cl)cc34)NC(=O)[C@H]2C1 (single isomer, unassigned) [Compound 89]	3600
C=CC(=O)N1CCN2c3c(cnc4c(C)c(-c5c(O)cccc5F)c(C)nc34)N(C)C(=O)[C@H]2C1 (single isomer, unassigned) [Compound 91]	35200
C=CC(=O)N1CCN2c3c(cnc4cc(-c5c(C)ccc6[nH]ncc56)c(Cl)cc34)OC[C@H]2C1 (single isomer, unassigned) [Example 4]	1700
C=CC(=O)N1CCN2c3c(cnc4cc(-c5c(C)ccc6[nH]ncc56)c(Cl)cc34)OC[C@@H]2C1 (single isomer, unassigned) [Example 5]	5800
C=CC(=O)N1CCN2c3c(cnc4cc(-c5c(C)ccc6[nH]ncc56)c(Cl)cc34)OC[C@@H]2C1 (single isomer, unassigned) [Example 6]	662
C=CC(=O)N1CCN2c3c(cnc4c(F)c(-c5c(O)cccc5F)c(Cl)cc34)OC[C@H]2C1 (single isomer, unassigned) [Example 8]	8500
C=CC(=O)N1CCN2c3c(cnc4cc(-c5c(O)cccc5F)c(Cl)cc34)OC[C@H]2C1 (single isomer, unassigned) [Mixture of 1 & 2]	211
C=CC(=O)N1CCN2c3c(cnc4c(F)c(-c5c(O)cccc5F)c(F)cc34)N(C)C(=O)[C@H]2C1 [Compound 42, (4aR)-3-Acryloyl-9,11-difluoro-10-(2-fluoro-6-hydroxyphenyl)-6-methyl-2,3,4,4a-tetrahydro-1H-pyrazino[1′,2′:4,5]pyrazino[2,3-c]quinolin-5(6H)-one]	77
C=CC(=O)N1CCN2c3c(cnc4cc(-c5c(O)cccc5F)c(Cl)c(F)c34)N(C)C(=O)[C@H]2C1 [Compound 59, (4aR)-11-Chloro-12-fluoro-10-(2-fluoro-6-hydroxyphenyl)-6-methyl-3-(prop-2-enoyl)-2,3,4,4a-tetrahydro-1H-pyrazino[1′,2′:4,5]pyrazino[2,3-c]quinolin-5(6H)-one]	202
C=CC(=O)N1CCN2c3c(cnc4cc(-c5c(O)cccc5F)c(Cl)c(Cl)c34)N(C)C(=O)[C@H]2C1 [Compound 60, (4aR)-11,12-Dichloro-10-(2-fluoro-6-hydroxyphenyl)-6-methyl-3-(prop-2-enoyl)-2,3,4,4a-tetrahydro-1H-pyrazino[1′,2′:4,5]pyrazino[2,3-c]quinolin-5(6H)-one]	501
C=CC(=O)N1CCN2c3c(cnc4cc(-c5c(O)cccc5F)c(Cl)cc34)N(CC)C(=O)[C@H]2C1 [Compound 90, (4aR)-11-Chloro-6-ethyl-10-(2-fluoro-6-hydroxyphenyl)-3-(prop-2-enoyl)-2,3,4,4a-tetrahydro-1H-pyrazino[1′,2′:4,5]pyrazino[2,3-c]quinolin-5(6H)-one]	333
